According to article PMC11667234, “CD63 as novel target for nanoemulsion-based ^19F MRI imaging and drug delivery to activated cardiac fibroblasts” (Theranostics, 2025):
“Also recorded” adds a separate entry of the source.

How the values were obtained:
mouse EpiSC = assay: Peptide binding by flow cytometry (6-FAM fluorescence); type: cell-based; settings: EpiSC from hearts 5 days after MI, 5 µg peptide, 30 min, 37°C, 6-FAM MFI, n = 3 hearts
Procedure: (§1) To study the in vitro binding of 6-FAM-conjugated peptides (see above) we used the following cells: mouse EpiSC and cardiac fibroblasts prepared as described above, normal human dermal fibroblasts (NHDF) from juvenile foreskin, and human monocytes (THP-1). In addition, we used primary human cardiac fibroblasts which were prepared by outgrowth culture technique from a heart sample of a patient with terminal heart failure undergoing orthotopic heart transplant surgery, kindly provided by the Cardiac Surgery Department of the University Hospital Düsseldorf, Düsseldorf, Germany. A tissue sample weighing about ~5 g was removed from the failing heart's apex and placed in cooled BIOPS buffer to be divided into tiny pieces for subsequent culture to allow cell outgrowth in a 6‑well plate with DMEM (low glucose), 20% FBS, and 1% penicillin-streptomycin. The medium was replaced every 2 days and biopsy pieces were discarded after 5 days. After 14 days, cells reached a confluence of about 80% and were then passed to T75 cell culture flasks.
(§2) The binding assay was performed as follows: Cells were detached with PBS-EDTA (5 mM) for 10 min at 37°C and centrifuged at 500 × g for 5 min. Afterwards, 5 µg of synthesized peptide (see above) was added to 800 µL (0.5 x 10^6 cells) of the cell suspension and incubated for 30 min at 37°C. To control the specific targeting of the EP9 peptide, scrambled and mutated peptides were used as negative controls. Subsequently, 200 µL of the cell suspension were washed in 2 mL MACS buffer (2 % FBS and 1 mM EDTA in PBS) and centrifuged at 500 × g for 5 min and the supernatant was discarded. One additional washing step was performed by resuspending the cell pellet in 200 µL of MACS buffer and centrifugation at 500 × g for 5 min. After discarding the supernatant, the cell pellet was resuspended in 200 µL of 4′6-diamidino-2-phenylindole dichlorhydrate (DAPI) (Merck, Darmstadt, Germany) (1 µg/mL) to allow discrimination of dead cells. Flow cytometric analysis was performed using a BD FACS Canto II flow cytometer (BD Biosciences, Franklin Lakes, NJ, USA).

human monocytes (THP1) = assay: as above; type: cell-based; settings: 30 min, 37°C, 6-FAM MFI, n = 3 replicates
Procedure: as §1, §2

[1] = tested on: primary human cardiac fibroblasts; assay: as above; type: cell-based; settings: outgrowth culture, patient with terminal heart failure, 30 min, 37°C, 6-FAM MFI, n = 2 replicates
Procedure: as §1, §2

[2] = tested on: rat epicardial stromal cells (EpiSC); settings: cultured EpiSC from infarcted rat hearts; cited from earlier work
Source text: Using bacterial phage display screening, our previous work identified five small peptides that bound to cultured EpiSC, isolated from infarcted rat hearts, with high affinity. […] In the present study, we first aimed to assess the potential of EP9 for in vivo imaging of epicardial and myocardial stromal cells (fibroblasts) in the post-MI mouse heart. To this end, we coupled EP9 to a ^19F-containing PFC-NE (EP9-PFC-NE), designed for the in vivo labeling of cardiac cells (Figure 1). At 5 days post-MI (50 min ischemia/reperfusion), 150 µL of EP9-PFC-NE were injected into the tail vein of infarcted mice. PFC-NE coupl ... || page 3: Figure S2. Binding of peptide EP9 in comparison to control peptides to mouse cardiac fibroblasts and human monocytes (THP1). The binding of peptide EP9 in comparison to EP9-derived scrambled and mutated (MUT) peptides (see Table S1), as well as a negative control peptide (Negative) with low affinity to cardiac stromal cells (as previously assessed: peptide EP50), was evaluated by flow cytometry after 30 min of incubation in vitro. 6-FAM fluorescence signal of the peptides at the surface of mouse cardiac fibroblasts isolated from hearts 5 days after MI (n = 3 hearts) and human mono ...

## Ac-KLMLPRPGGGKC-NH2 [EP9, 7-amino acid peptide KLMLPRP with glycine spacer GGGK(FAM)C, from phage display on rat EpiSC]
Mouse EpiSC
  binding to cultured mouse EpiSC: superior binding
Human monocytes (THP1)
  binding to human monocytes (THP1): no discernible binding; also recorded: only negligible binding
[1]
  binding to primary human cardiac fibroblasts: high binding
[2]
  binding affinity to rat EpiSC: high binding affinity; also recorded: highest affinity and specificity
